In PMC9862186 (International Journal of Molecular Sciences, 2023):
Where two headings read alike, the source gives them in different places.

Experiments:
rats = conditions: cited from earlier work
in vivo [1] = conditions: for Kp at 10 min: R: ratio of concentration between CSF and bloodstream at Tmax
Method: (§1) A saline solution (0.9% NaCl) was added to a mixture of cinnamaldehyde (density = 1.05 g/mL) and Cremophor® RH 40 (1:1 v/v) in order to obtain a 12.5 mg/mL cinnamaldehyde emulsion in the presence of ethanol (10% of final volume). A group (n = 4) of male Wistar rats (200–250 g) fasted for 24 h was anesthetized during the experimental period and received 0.4 mL via a femoral intravenous infusion (rate = 0.2 mL/min; 2 min) of 12.5 mg/mL cinnamaldehyde emulsion (20 mg/kg cinnamaldehyde dose).
(§2) At the end of the infusions and at fixed time points, CSF samples (50 μL) were withdrawn and blood samples (100 μL) were collected. The CSF was withdrawn using the cisternal puncture method described by van den Berg et al., which requires a single needle stick and allows the collection of serials (40–50 μL) CSF samples that are virtually blood-free. A total volume of about a maximum of 150 μL of CSF/rat (i.e., three 50 μL samples/rat) was collected during the experimental session, choosing the time points (n = 3–5, taking into account a maximum of three collections per rat) in order to allow the restoring of the CSF physiological volume.
(§3) The chromatographic apparatus consisted of a modular system (model LC-10 AD VD pump and model SPD-10A VP variable wavelength UV−vis detector; Shimadzu, Kyoto, Japan) and an injection valve with 20 μL sample loop (model 7725; Rheodyne, IDEX, Torrance, CA, USA). Separations were performed at room temperature on a 5 μm Hypersil BDS C-18 column (150 mm × 4.6 mm i.d.; Alltech Italia Srl, Milan, Italy) equipped with a guard column packed with the same Hypersil material. The volume injection was 10 μL. Data acquisition and processing were performed on a personal computer using CLASS-VP Software, version 7.2.1 (Shimadzu Italia, Milan, Italy).
For CSF simulation, standard aliquots of balanced solution (Dulbecco’s phosphate buffer saline—DPBS—without calcium and magnesium) in the presence of 0.45 mg/mL BSA were used.

[2] = rat, in vivo, cited from earlier work
in vivo [3] = conditions: rat, po
Method: as §2
(§4) Each type of formulation was administered to a group of four rats.
(§5) In particular, 4.2 mL of EU-CD formulation were administered to rats (500 mg/kg dose).
(§6) In particular, 320 μL of EU-SL formulation were administered to rats (500 mg/kg dose).
(§7) Free cinnamaldehyde (100 mg) was orally administered by gavage to rats kept fasting since 24 h. In particular, 95 μL of cinnamaldehyde (density = 1.05 g/mL) were dissolved in 905 μL of corn oil and administered to rats (400 mg/kg dose).
(§8) The solid AC-GN formulation (14% w/w cinnamaldehyde) was mixed with palatable food in order to induce their oral intake by the rats kept fasting since 24 h. In particular, the rats assumed a dose of 100 mg of cinnamaldehyde (400 mg/kg) contained in 714 mg of AC-GN.
(§9) After the administrations, blood (100 μL) and CSF samples (50 μL) were serially collected at fixed time points from each rat and treated as described above in order to quantify the compounds.

in vivo [4] = conditions: Wistar, rat; for bioavailability: F: absolute bioavailability
Method: as §4, §5, §6, §7, §8, §9
(§10) In particular, all the AUC values referred to the bloodstream were calculated by the trapezoidal method within the last time point detected, and the remaining area was obtained as the ratio between the compound concentration detected at the last time point and the elimination constant (kel), which was obtained from the slope of the semilogarithmic plots (−slope × 2.3). The clearance (Cl) and distribution volume (Vd) values were calculated according to the non-compartmental model as the ratios “dose/AUC” and “Cl/kel”, respectively, where kel is the elimination constant obtained by the slope of semilogarithmic plot.

in vivo [5] = conditions: male, Wistar, rat, in vivo, iv
Method: as §1, §2
The samples were centrifuged at 12,500× g for 5 min, then about 300 μL of supernatant were withdrawn and further centrifuged. […] As a control, a blood sample (100 μL) was collected by each rat before the administrations of the drugs. The control samples were immediately added to 300 μL of ice-cold CH3CN in the absence of internal standard, then treated as described above.
For cinnamaldehyde analysis the blood samples were hemolyzed immediately after their collection with 500 μL of ice-cold water, and then 50 μL of 10% sulfosalicylic acid and 50 μL of internal standard (100 μM carbazole dissolved in a water-methanol mixture 50:50 v/v) was added. The samples were extracted twice with 1 mL of water-saturated ethyl acetate, and, after centrifugation at 12,500× g for 10 min, the organic layer was reduced to dryness under a mild nitrogen stream at room temperature. Then, 200 μL of a water-acetonitrile mixture (50:50 v/v) were added, and after centrifugation, 10 μL were analyzed via HPLC (see below) for cinnamaldehyde detection. As a control, a blood sample (100 μL) was collected by each rat before the administration of the drug. The control samples were treated as described above in the absence of internal standard.
as §10, §3
The detector was set at 205 nm.

PC12 cells [6] = conditions: cited from earlier work
PC12 cells [7] = experiment: Dopamine release from neuronal differentiated PC12 cells (ELISA); format: cell-based, rat; conditions: 60 mM K^+, 5 min, control stimulus; baseline 393 ± 12 pg/mL
Method: PC12 cell line (RRID:CVCL_0481), derived from rat adrenal gland pheochromocytoma, was a kind gift from Dr Federica Brugnoli from the Department of Translational Medicine, University of Ferrara, Ferrara (Italy). The cells were grown in RPMI-1640 (HiGlutaXL) medium (Microtech, Naples, Italy), supplemented with 100 µg/mL streptomycin and 100 IU/mL penicillin, 10% horse serum (HS), and 5% fetal bovine serum (FBS). PC12 cells were gently removed from the 4 µg/cm^2 collagen IV-coated flask with a rubber scraper, transferred as cell suspension into a Falcon tube and resuspended through a sterile tip to avoid any clumping, then split into separate flasks twice weekly. To differentiate neuronal phenotypes, PC12 cells were seeded in 4 µg/cm^2 collagen IV-coated 12-well plates at a density of 5000 cells/well, and they were then left to adhere to the well for 24 h. […] All the proliferative and differentiated cultures were maintained at 37 °C in a humidified 5% CO2 atmosphere.
PC12 cells differentiated to neuronal-like phenotype in collagen IV-treated 12-well plates, were first synchronized all to the same circadian phase and cell cycle by a serum shock (50% HS and 50% DMEM HiGlutaXL) for 2 h at 37 °C [49] to achieve a synchronous release of dopamine. Synchronization medium was then aspirated off, cells were washed with 3 × 1 mL and equilibrated for 15 min at 37 °C in 1 mL of Krebs Ringer HEPES (KRH) physiological buffer, following the recipe of Mount et al. (25 mM HEPES/Tris, pH 7.4, 1.2 mM KH2PO4, 125 mM NaCl, 4.8 mM KCl, 1.2 mM MgSO4, 2.2 mM CaCl2, 5.6 mM glucose, 1.0 mM ascorbic acid, 10 µM pargyline, 1.0 µM nomifensine). […] To remove cell debris, all samples of 1 mL incubation KRH at the end of treatments were centrifuged at 1000× g for 20 min at 4 °C and stored at −20 °C until dopamine levels were determined by ELISA assay.
Dopamine levels in 1 mL incubation KRH buffer were detected by means of an ELISA assay, based on the […] ELISA principle for detection of dopamine, following manufacturer’s instructions (IBL International, Hamburg, Germany–catalog no: RE59161; purchased from Tecan Italia S.r.I, Milan, Italy). After the substrate reaction, the intensity of the developed color was proportional to the amount of dopamine, detected at 450 nm using a microplate reader spectrophotometer (Sunrise® Microplate Reader, Tecan Trading AG, Männedorf, Switzerland). Results of samples were determined directly using the standard curve. Results are presented as mean ± SE values of four independent experiments. Data were plotted and analyzed with GraphPad software (Prism, version 7.0, San Diego, CA, USA).

[8] = male, Wistar, rat, in vivo, iv, 20 mg/kg

SMILES: O=C/C=C/c1ccccc1 [Cinnamaldehyde, cinnamaldehyde]
- oral LD50 (rats; oral): about 3 g/kg
- intravenous dose known to induce toxicity (rats; rats, iv): 25 mg/kg
- intravenous dose that appears lethal (rats; rats, iv): 30 mg/kg
- AUC (in vivo [1]; male, Wistar, rat, in vivo, iv): 1610 ng·h/mL
- AUC (in vivo [1]; [8]): 1610 ng·h/mL
- Cmax (in vivo [1]; [8]): 2040 ± 360 ng/mL
- Kp at 10 min (in vivo [1]; male, Wistar, rat, in vivo, iv, rat, iv, 10 min from the end of infusion): 0.156 ± 0.038
- time within which CSF concentrations decreased to zero or near to zero (in vivo [1]; rat CSF, iv 20 mg/kg): ≤ 75 min
- R: ratio of concentration between CSF and bloodstream at Tmax (in vivo [1]; rat, iv, 10 min from the end of infusion): 0.16 ± 0.04
- C0 ([2]; iv, 20 mg/kg): about 0.5 μg/mL
- C0 ([2]; iv, 25 mg/kg): about 20 mg/mL
- F (oral bioavailability) ([2]; po): less than 20%
- AUC in CSF to last time of detection (in vivo [3]): 0 µg·min/mL
- Tmax: time of Cmax in CSF (in vivo [3]): 0 h
- Tmax: time of Cmax in the bloodstream (in vivo [4]): 40 min
- F: absolute bioavailability (in vivo [4]; po): 7.33 ± 0.37%
- RB: relative bioavailability (in vivo [4]; po): 100%
- bioavailability (in vivo [4]; po): 7%
- Vd (in vivo [5]): 1.32 ± 0.19 L/kg
- clearance (in vivo [5]): 39.5 ± 1.7 mL/min/kg
- half-life (in vivo [5]): 23.1 ± 1.6 min

SMILES: C=C(C)[C@H]1CC=C(C)CC1 [D-Limonene, D-limonene]
- detection in the CSF of rats after intravenous administration (in vivo [1]; iv 100 mg/kg, within 90 min after the end of infusion): not detected
- AUC in CSF from the end of infusion to last time of detection (in vivo [1]; male, Wistar, rat, in vivo, iv): 0 µg·min/mL
- Kp at 10 min (in vivo [1]; male, Wistar, rat, in vivo, iv): 0
- C0 ([2]; iv, 200 mg/kg): higher than 80 μg/mL
- terminal t1/2 ([2]; iv, 200 mg/kg): 280 min
- Cmax ([2]; po, 75 mg/kg): ~300 ng/mL
- Cmax ([2]; po, 200 mg/kg): about 11 μg/mL
- AUC in CSF to last time of detection (in vivo [3]): 0 µg·min/mL
- Tmax: time of Cmax in CSF (in vivo [3]): 0 h
- Tmax: time of Cmax in the bloodstream (in vivo [4]): 30 min
- F: absolute bioavailability (in vivo [4]; po): 7.04 ± 0.96%
- bioavailability (in vivo [4]; po): 7%
- Cl: clearance (in vivo [5]): 284 ± 10 mL·min/kg
- Vd (in vivo [5]): 5.52 ± 0.558 L/kg
- half-life (in vivo [5]): 12.4 ± 0.9 min
- clearance (in vivo [5]; Cl: clearance): 284 ± 10.4 mL/min/kg

SMILES: Oc1ccc(/C=C/c2cc(O)cc(O)c2)cc1 [resveratrol]
- most effective concentration in increasing the viability of PC12 cells (PC12 cells [6]): 25 µM

SMILES: [Cl-].[K+] [K^+, reference compound]
- dopamine release (PC12 cells [7]): 4340 ± 265 pg/mL
